Source: patent US5198336A, “Bioassay for chemicals which generate prooxidant states” (Wisconsin Alumni Research Foundation, priority 1989, dated 1993)

System: submitochondrial electron transport particles (ETP) having competent electron transport enzyme complex I
Assay: facilitated electron withdrawal bioassay with SOD-depleted submitochondrial electron transport particles (adrenochrome formation, absorbance at 480 nm)
Assay type: biochemical, bovine (beef heart)
Conditions: for lowest observable effect concentration (LOEC): concentration giving a response three standard deviations above mean control, HEPES buffer pH 7.2, 1.5 mM epinephrine, 0.5 mg ETP, 125 uM NADH, 10 minute incubation; for lowest observable effect concentration (LOEC) / relative potency to induce a prooxidant state (FIG. 4): 0.2 ug per ml antimycin A; for relative potency to induce a prooxidant state (FIG. 4): ranking among the five agents tested, 0 to 10 ug per ml toxicant
Procedure: The practice of the present invention began with the creation of submitochondrial electron transport particles (ETP) isolated from beef hearts. These are also referred to as submitochondrial particles. The mitochondria were isolated from bovine heart muscle by the method of Blair, supra. The superoxide dismutase-depleted ETP particles were prepared by sonicating the thawed mitochondria for two minutes in a medium containing 0.25M sucrose and 2 mM EDTA, pH 7.5, at a protein concentration of 25 mg per ml. The result was diluted with an equal volume of 0.25M sucrose and adjusted to a pH of 7.5 after which it was centrifuged for 40 minutes at 105,000×g. The resulting ETP particles were washed in ten volumes of 0.25M sucrose and sedimented by centrifugation. After treatment the ETP particles were stored frozen in buffered 0.25M sucrose at a protein concentration of 20 mg per ml.
The test medium contained 50 mM HEPES buffer, 1.5 mM epinephrine and 0.4 uM antimycin. The medium was adjusted to a pH of 7.2 with 5M potassium hydroxide and dispensed in 1.8 ml aliquots into 1-CM path length glass cuvettes. Either aqueous diluent or the test sample was added in a volume of 20-50 ul so that the final concentration ranged between 0 and 100 ug per ml. Following the addition of 0.5 mg of the SOD-depleted ETP particles suspended in a 0.1 ml 50 mM HEPES buffer, the cuvettes were covered with parafilm and inverted three times to mix the contents. First a base line absorbance reading was taken by the spectrophotometer set for 480 nm.
After the base line reading was taken, the reaction was started by adding 50 ul of 5 mM NADH. The final absorbance readings were then taken after a 10 minute incubation at room temperature. The final absorbance readings were used to calculate a lowest observable effect concentration (LOEC) for each of the chemicals tested. […] It is intended that the LOEC value be analogous to the limited detection value used for environmental samples subject to conventional analysis.
All experiments summarized in this table and in FIG. 4 were conducted with 2 ml HEPES buffer, a pH of 7.2, 1.5 mM epinephrine, 0.2 ug per ml antimycin A, 0.5 mg ETP, 125 uM NADH and 0 to 10 ug per ml of the test toxicant.

Row | Structure (SMILES) | lowest observable effect concentration (LOEC) [µg/L] | relative potency to induce a prooxidant state (FIG. 4) | effect of antimycin A or rotenone on the response to paraquat (FIG. 3) (with vs without 0.2 ug per ml antimycin A or 0.2 ug per ml rotenone, absorbance at 480 nm)
1 | O=S(=O)(O)c1ccccc1N=Nc1c(S(=O)(=O)O)cc2cc(S(=O)(=O)O)c(N=Nc3ccccc3S(=O)(=O)O)c(O)c2c1O [Sulfonazo III] | 320 | strongest inducer of the prooxidant states | 
2 | c1cc[n+]2c(c1)-c1cccc[n+]1CC2 [Diquat] | 1600 |  | 
3 | O=[N+]([O-])c1cc[n+]([O-])c2ccccc12 [4-Nitroquinoline-N-oxide] | 1600 |  | 
4 | COc1cccc2c1C(=O)c1c(O)c3c(c(O)c1C2=O)C[C@@](O)(C(=O)CO)C[C@@H]3O[C@H]1C[C@H](N)[C@H](O)[C@H](C)O1 [Adriamycin] | 6300 | weakest | 
5 | C[n+]1ccc(-c2cc[n+](C)cc2)cc1 [Paraquat] | 3500 |  | increases the rate at which paraquat can draw electrons from the electron transport cascade
